Here are results for three compounds from patent US20210275514A1, “COMPOUNDS FOR USE IN TREATING KIDNEY DISORDERS” (Hoffmann-La Roche Inc., priority 2018, published 2021).

This experiment relates to ABCA1. Description: ABCA1 expression by western blot in differentiated podocytes. In kind it is cell-based, human. The settings on record: 18 h. The procedure: Podocytes differentiated for 14 days were starved in RPMI-0.2% FBS for 18 h and then treated with freshly prepared dilutions of compounds in full media for 18 h at 37° C. and 5% CO2. Compound concentrations of 1 μM, 5 μM and 10 μM were evaluated. Cells were then washed with PBS and lysed with 1× cell lysis buffer (Cell Signaling) supplemented with protease and phosphatase inhibitor cocktails (Roche). Total protein content was determined by BCA method (Pierce, Thermoscientific). ABCA1 expression was analyzed by western blot.
Lysates, or cell fractions were incubated with buffer sample at 55° C. for 10 min under reducing conditions. A total of […] of protein in lysates, and one third of the volume collected in cell fraction preps, were separated by SDSPAGE in 4-20% gels (Biorad) and proteins were then transferred to PVDF membranes. Membranes were blocked with 5% milk and blotted with protein-specific antibodies for 18 h at 4° C. The following antibodies were used: mouse anti-ABCA1 (Abcam; 1:1,000), rabbit anti-GAPDH antibody (Millipore; 1:10,000), rabbit anti-MEK and anti-Na^+/K^+ ATPase (Cell Signaling; 1:1,000). After washing with PBS-T, membranes were incubated with anti-mouse and anti-rabbit specific antibodies conjugated to HRP (Promega) 1:10,000 in 5% milk. Membranes were washed and signal was developed using Western bright ECL substrate (Advansta).

Each structure is given as a SMILES string. “Also recorded” adds a separate entry of the source.

Turning to `O=C(O)c1ccc(-c2nnc([C@](F)([C@H]3Cc4[nH]c5ccc(Cl)cc5c4C3)S(=O)(=O)c3cccc(Br)c3)o2)cc1` (racemic) [Cpd D, 4-{5-[(RS)-(3-Bromo-benzenesulfonyl)-((SR)-7-chloro-1,2,3,4-tetrahydro-cyclopenta[b]indol-2-yl)-fluoro-methyl]-[1,3,4]oxadiazol-2-yl}-benzoic acid], the “ABCA1 expression (western blot, whole cell lysates)” value (“ABCA1 expression” for short) (doses as low as 1 uM, FIG. 4A) was “strong induction; also recorded: markedly increased”.

For the compound `Cc1nnc([C@](F)([C@H]2Cc3[nH]c4ccc(Cl)cc4c3C2)S(=O)(=O)c2ccccc2)o1` [Cpd E, (R)-2-[(S)-Benzenesulfonyl-fluoro-(5-methyl-[1,3,4]oxadiazol-2-yl)-methyl]-7-chloro-1,2,3,4-tetrahydro-cyclopenta[b]indole], the “ABCA1 expression” value (doses as low as 1 uM, FIG. 4A) is given as “strong induction; also recorded: markedly increased”.

Take `O=C(Nc1cncnc1)c1ccc(OCC(F)(F)F)c(-c2ccc(Cl)cc2)n1` [Cpd F, 6-(4-chlorophenyl)-N-(pyrimidin-5-yl)-5-(2,2,2-trifluoroethoxy)picolinamide]: the “ABCA1 expression” value (1 μM, 5 μM and 10 μM evaluated) is “only Cpd A, and Cpd G, increased ABCA1 expression”.
